Eight compounds from patent US10508109B2 (priority 2015, dated 2019) can be followed below.

The test system of one experiment is A549. The experiment in a line: Cell-based assay, anti-proliferative activity (Cell Counting Kit-8, 72 hours). To be noted: Homo sapiens, read-out: IC50 (μM) A549. The method, boiled down: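 Seed cells in 96-well format; add inhibitors; measure growth by CCK-8 at end of exposure; derive IC50.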
In another experiment the test system is CCD-18Co. The experiment is described as above. To be noted: Homo sapiens, read-out: IC50 (μM) CCD-18Co. Put shortly: (§1)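 Anti-proliferative IC50 obtained from 96-well cultures treated 72 h with inhibitor at 0–100 micro-M, growth assessed by a CCK-8 colorimetric readout.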
A further experiment relates to HCT-116. The experiment is described as above. To be noted: Homo sapiens, read-out: IC50 (μM) HCT-116. Put shortly: as §1
The test system of the next experiment is HFL1. The experiment is described as above. To be noted: Homo sapiens, read-out: IC50 (μM) HFL1. The method, boiled down: as §1
A further experiment has as its system PC14. Described as above. To be noted: Homo sapiens, read-out: IC50 (μM) PC14. Put shortly: as §1
For another experiment, the target named is SUV39H2 (Homo sapiens (Human), UniProt Q9H5I1). To be noted: read-out: IC50 (μM) Suv 39H2 assay.
SUV39H2, sequence (Q9H5I1 whole entry): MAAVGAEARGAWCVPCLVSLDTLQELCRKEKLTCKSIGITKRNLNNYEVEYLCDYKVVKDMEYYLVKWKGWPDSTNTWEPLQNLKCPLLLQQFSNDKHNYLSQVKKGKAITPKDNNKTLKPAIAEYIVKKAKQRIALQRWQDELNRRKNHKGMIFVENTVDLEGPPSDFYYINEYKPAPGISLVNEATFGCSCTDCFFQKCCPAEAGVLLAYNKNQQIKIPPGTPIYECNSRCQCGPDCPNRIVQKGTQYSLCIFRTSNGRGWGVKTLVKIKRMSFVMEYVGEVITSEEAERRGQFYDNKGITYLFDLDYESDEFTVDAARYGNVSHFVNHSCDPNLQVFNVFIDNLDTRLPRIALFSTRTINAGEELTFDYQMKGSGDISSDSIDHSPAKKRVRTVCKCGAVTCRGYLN
[1] abbreviates: A549 cells, 72 hours, Cell Counting Kit-8.
The mark [2] stands for this setting: CCD-18Co cells, 72 hours, Cell Counting Kit-8.
Setting [3] is: HCT-116 cells, 72 hours, Cell Counting Kit-8.
Where [4] appears, read: HFL1 cells, 72 hours, Cell Counting Kit-8.
Setting [5] is: PC-14, PC14 cells, 72 hours, Cell Counting Kit-8.
The mark [6] stands for this setting: A549 cells, Cell Counting Kit-8, 72 hours.
Where [7] appears, read: CCD-18Co cells, Cell Counting Kit-8, 72 hours.
The mark [8] stands for this setting: HCT-116 cells, Cell Counting Kit-8, 72 hours.
[9] abbreviates: HFL1 cells, Cell Counting Kit-8, 72 hours.
[10] abbreviates: PC-14, PC14 cells, Cell Counting Kit-8, 72 hours.

SMILES strings stand for the structures. Structures can show the parent of a compound that is named as a salt. Where two headings read alike, the source gives them in different places.

As usually defined, the IC50 is the concentration at which inhibition is half-maximal. Regarding `COc1cc(OC)c(-c2cn3ccc(-c4ccc(C(=O)NCC5CCCN5)cc4)cc3n2)cc1Cl` (stereo not drawn) [Example 248, 4-(2-(5-chloro-2,4-dimethoxyphenyl)imidazo[1,2-a]pyridin-7-yl)-N-(pyrrolidin-2-ylmethyl)benzamide], the IC50 was determined as 4.6 µM in the experiment with A549 (setting [1]); 3.1 µM in the experiment on CCD-18Co (setting [2]); 2.3 µM in the experiment with HCT-116 (setting [3]); 5.7 µM in the experiment with HFL1 (setting [4]); 2.6 µM in the experiment with PC14 (setting [5]); 0.0157 µM at SUV39H2 (enzyme assay).
`COc1cc(OC)c(-c2cn3cc(NCCN)c(N4CCN(C(=O)OC(C)(C)C)CC4)nc3n2)cc1Cl` [Example 221, tert-butyl 4-(6-((2-aminoethyl)amino)-2-(5-chloro-2,4-dimethoxyphenyl)imidazo[1,2-a]pyrimidin-7-yl)piperazine-1-carboxylate]: the IC50 with A549 (setting [1]) worked out at 10 µM; in the experiment on CCD-18Co (setting [2]) it was 5.6 µM; with HCT-116 (setting [3]), 5.4 µM; in the experiment with HFL1 (setting [4]) it was 4.9 µM; with PC14 (setting [5]), 9.5 µM; at SUV39H2 (enzyme assay), 0.0118 µM.
Take `COc1cc(OCCCN(C)C)c(-c2cn3ccc(N4CCN(S(C)(=O)=O)CC4)cc3n2)cc1Cl` [Example 155, 3-(4-chloro-5-methoxy-2-{7-[4-(methylsulfonyl)piperazin-1-yl]-imidazo[1,2-a]pyridin-2-yl}phenoxy)-N,N-dimethylpropan-1-amine]: the IC50 worked out at 7.5 µM in the experiment on A549 (setting [6]); 7.5 µM in the experiment with CCD-18Co (setting [7]); 5.8 µM in the experiment on HCT-116 (setting [8]); 5.5 µM in the experiment on HFL1 (setting [9]); 3.8 µM in the experiment on PC14 (setting [10]); 0.0127 µM on SUV39H2 (enzyme assay).
As to `COc1cc(OC)c(-c2cn3ccc(N4CCN(C(=O)C5CCCC5)CC4)nc3n2)cc1Cl` [Example 243, (4-(2-(5-chloro-2,4-dimethoxyphenyl)imidazo[1,2-a]pyrimidin-7-yl)-piperazin-1-yl)(cyclopentyl)methanone], the IC50 in the experiment with A549 (setting [1]) turned out to be 4.7 µM; in the experiment on CCD-18Co (setting [2]), 6.1 µM; with HCT-116 (setting [3]) it was 5.8 µM; in the experiment on HFL1 (setting [4]), 4.8 µM; in the experiment with PC14 (setting [5]) it was 3.3 µM; at SUV39H2 (enzyme assay), 0.0183 µM.
In the case of `CC[C@@H](C)[C@H](N)C(=O)Nc1ccn2cc(-c3cc(Cl)c(OC)cc3OC)nc2c1` [Example 258, (2S,3R)-2-amino-N-(2-(5-chloro-2,4-dimethoxyphenyl)imidazo[1,2-a]-pyridin-7-yl)-3-methylpentanamide], the IC50 in the experiment with A549 (setting [1]) came out at 5.8 µM; in the experiment on CCD-18Co (setting [2]), 4.6 µM; in the experiment on HCT-116 (setting [3]), 7.6 µM; in the experiment with HFL1 (setting [4]) it was 6.8 µM; with PC14 (setting [5]) it was 5.7 µM; at SUV39H2 (enzyme assay) it was 0.0639 µM.
For `COc1cc(OC)c(-c2cn3ccc(N4CC[C@H](NCc5ccc([N+](=O)[O-])cc5)C4)cc3n2)cc1Cl` [Example 304, (S)-1-(2-(5-chloro-2,4-dimethoxyphenyl)imidazo[1,2-a]pyridin-7-yl)-N-(4-nitrobenzyl)pyrrolidin-3-amine], the IC50 in the experiment with A549 (setting [1]) was 0.87 µM; in the experiment on CCD-18Co (setting [2]), 0.49 µM; in the experiment on HCT-116 (setting [3]), 0.52 µM; in the experiment with HFL1 (setting [4]), 0.7 µM; in the experiment on PC14 (setting [5]), 0.88 µM; on SUV39H2 (enzyme assay), 0.00888 µM.
As for `COc1cc(OC)c(-c2cn3ccc(N4CCN(CCO)CC4)cc3n2)cc1Cl` [Example 43, 2-(4-(2-(5-chloro-2,4-dimethoxyphenyl)imidazo[1,2-a]pyridine-7-yl)piperazin-1-yl)ethanol dihydrochloride], the IC50 came to 14 µM with A549 (A549, 72 h); 11 µM in the experiment on CCD-18Co (CCD-18Co, 72 h); 14 µM in the experiment with HCT-116 (HCT-116, 72 h); 6.9 µM with HFL1 (HFL1, 72 h); 9.8 µM in the experiment with PC14 (PC-14, 72 h); 0.00854 µM on SUV39H2.
As for `COc1cc(OCCCN(C)C)c(-c2cn3ccc(N4CCCN(C(=O)OC(C)(C)C)CC4)cc3n2)cc1Cl` [Example 211, tert-butyl 4-(2-{5-chloro-2-[3-(dimethylamino)propoxy]-4-methoxyphenyl}imidazo[1,2-a]pyridin-7-yl)-1,4-diazepane-1-carboxylate], the IC50 was determined as 2.9 µM in the experiment on A549 (setting [6]); 1.4 µM in the experiment on CCD-18Co (setting [7]); 2.4 µM with HCT-116 (setting [8]); 1.4 µM with HFL1 (setting [9]); 0.8 µM with PC14 (setting [10]); 0.0563 µM at SUV39H2 (enzyme assay).
